The target in the experiment is T1, human APJ receptor (Homo sapiens, UniProt P35414).
T1 construct: expressed in transfected cells
T1 sequence (P35414 1-380): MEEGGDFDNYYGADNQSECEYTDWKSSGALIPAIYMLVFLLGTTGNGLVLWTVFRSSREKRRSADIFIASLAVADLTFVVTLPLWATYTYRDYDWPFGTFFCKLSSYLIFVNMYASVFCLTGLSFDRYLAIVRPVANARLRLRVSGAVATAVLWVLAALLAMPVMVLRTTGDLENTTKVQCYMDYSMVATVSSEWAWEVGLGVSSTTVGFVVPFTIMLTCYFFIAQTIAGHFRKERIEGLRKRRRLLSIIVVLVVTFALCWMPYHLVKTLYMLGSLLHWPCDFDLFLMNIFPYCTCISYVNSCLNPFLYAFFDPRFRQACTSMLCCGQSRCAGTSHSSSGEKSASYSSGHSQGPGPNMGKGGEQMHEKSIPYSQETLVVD
The experiment in a line: Intracellular cAMP accumulation assay (APJ hcAMP, HTRF). The conditions noted are these: Table 2; HEK293 cells stably expressing human APJ receptor; read-out: hAPJ cAMP EC50 Potency range. The experiment is classed as cell-based. Summed up:
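HEK293 cells stably expressing the receptor (5,000/well) treated with compound plus […] and 2 μM forskolin for 30 min at room temperature; cAMP by HTRF against a cAMP standard curve. EC50 from variable-slope sigmoidal fit; Ymax as % of (Pyr1)apelin-13 inhibition.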
A general note: Changes in cAMP serve as a functional read-out for many G protein-coupled receptors.

A word on the EC50: it is the concentration needed to bring the measured effect to its halfway point.

Consider `CCCCc1nc(O)c(-c2nnc(Cc3csc(C)n3)o2)c(=O)n1[C@@H](COC)c1ccccc1` [Example 94, 2-butyl-6-hydroxy-3-[(1R)-2-methoxy-1-phenylethyl]-5-{5-[(2-methyl-1,3-thiazol-4-yl)methyl]-1,3,4-oxadiazol-2-yl}-3,4-dihydropyrimidin-4-one], for which the EC50 is 0.01 to 10 nM.
For `CCCCc1nc(O)c(-c2nnc(Cc3csc(C)n3)o2)c(=O)n1[C@@H](C)c1ccc(F)cc1` [Example 95, 2-butyl-3-[(1S)-1-(4-fluorophenyl)ethyl]-6-hydroxy-5-{5-[(2-methyl-1,3-thiazol-4-yl)methyl]-1,3,4-oxadiazol-2-yl}-3,4-dihydropyrimidin-4-one] the value was 10 to 100 nM; for `CCCCc1nc(O)c(-c2nnc(Cc3noc4ccccc34)o2)c(=O)n1[C@H]1CCc2ccccc21` [Example 96, 5-{5-[(1,2-benzoxazol-3-yl)methyl]-1,3,4-oxadiazol-2-yl}-2-butyl-3-[(1S)-2,3-dihydro-1H-inden-1-yl]-6-hydroxy-3,4-dihydropyrimidin-4-one], 10 to 100 nM.
To `CCCCc1nc(O)c(-c2nnc(Cc3csc(C)n3)o2)c(=O)n1[C@H]1CCc2ccccc21` [Example 97, 2-butyl-3-[(1S)-2,3-dihydro-1H-inden-1-yl]-6-hydroxy-5-{5-[(2-methyl-1,3-thiazol-4-yl)methyl]-1,3,4-oxadiazol-2-yl}-3,4-dihydropyrimidin-4-one] belongs 0.01 to 10 nM; to `CCCCc1nc(O)c(-c2nnc(Cc3ccc(Cl)cn3)o2)c(=O)n1[C@@H](C)c1ccc(F)cc1` [Example 98, 2-butyl-5-{5-[(5-chloropyridin-2-yl)methyl]-1,3,4-oxadiazol-2-yl}-3-[(1S)-1-(4-fluorophenyl)ethyl]-6-hydroxy-3,4-dihydropyrimidin-4-one], 0.01 to 10 nM; to `CCCCc1nc(O)c(-c2nnc(Cc3ccc(Cl)cn3)o2)c(=O)n1[C@H](COC)c1ccccc1` [Example 99], 10 to 100 nM.
For `CCCCc1nc(O)c(-c2nnc(Cc3ccc(Cl)cn3)o2)c(=O)n1[C@H]1CCCc2ccccc21` [Example 100, 2-butyl-5-{5-[(5-chloropyridin-2-yl)methyl]-1,3,4-oxadiazol-2-yl}-6-hydroxy-3-[(1S)-1,2,3,4-tetrahydronaphthalen-1-yl]-3,4-dihydropyrimidin-4-one] the value was 0.01 to 10 nM; for `CCCCc1nc(O)c(-c2nnc(Cc3ccc(Cl)cn3)o2)c(=O)n1[C@@H](COC)c1ccccc1` [Example 101, 2-butyl-5-{5-[(5-chloropyridin-2-yl)methyl]-1,3,4-oxadiazol-2-yl}-6-hydroxy-3-[(1R)-2-methoxy-1-phenylethyl]-3,4-dihydropyrimidin-4-one], 0.01 to 10 nM.
As to `CCCCc1nc(O)c(-c2nnc(Cc3noc4ccccc34)o2)c(=O)n1[C@@H](C)c1ccc(OC)cc1` [Example 102, 5-{5-[(1,2-benzoxazol-3-yl)methyl]-1,3,4-oxadiazol-2-yl}-2-butyl-6-hydroxy-3-[(1S)-1-(4-methoxyphenyl)ethyl]-3,4-dihydropyrimidin-4-one], the EC50 lay in the range of 100 to 300 nM.
As to `CCCCc1nc(O)c(-c2nnc(Cc3noc4ccccc34)o2)c(=O)n1[C@@H](C)c1cccc(C#N)c1` [Example 103, 3-[(1S)-1-(5-{5-[(1,2-benzoxazol-3-yl)methyl]-1,3,4-oxadiazol-2-yl}-2-butyl-4-hydroxy-6-oxo-1,6-dihydropyrimidin-1-yl)ethyl]benzonitrile], the half-maximal effective concentration (EC50) fell in the range of 10 to 100 nM.
Turning to `CCCCc1nc(O)c(-c2nnc(Cc3csc(C)n3)o2)c(=O)n1[C@@H](C)c1cccc(C#N)c1` [Example 104, 3-[(1S)-1-(2-butyl-4-hydroxy-5-{5-[(2-methyl-1,3-thiazol-4-yl)methyl]-1,3,4-oxadiazol-2-yl}-6-oxo-1,6-dihydropyrimidin-1-yl)ethyl]benzonitrile], the EC50 is 10 to 100 nM.
Take `CCCCc1nc(O)c(-c2nnc(Cc3ccc(Cl)cn3)o2)c(=O)n1[C@@H](CCC)c1ccccc1` [Example 105, 2-butyl-5-{5-[(5-chloropyridin-2-yl)methyl]-1,3,4-oxadiazol-2-yl}-6-hydroxy-3-[(1S)-1-phenylbutyl]-3,4-dihydropyrimidin-4-one]: the EC50 lay in the range of 0.01 to 10 nM.
To `CCCCc1nc(O)c(-c2nnc(Cc3csc(C)n3)o2)c(=O)n1[C@@H](CCC)c1ccccc1` [Example 106, 2-butyl-6-hydroxy-5-{5-[(2-methyl-1,3-thiazol-4-yl)methyl]-1,3,4-oxadiazol-2-yl}-3-[(1S)-1-phenylbutyl]-3,4-dihydropyrimidin-4-one] belongs 10 to 100 nM.
Turning to `CCCCc1nc(O)c(-c2nnc(Cc3noc4ccccc34)o2)c(=O)n1[C@@H](CCC)c1ccccc1` [Example 107, 5-{5-[(1,2-benzoxazol-3-yl)methyl]-1,3,4-oxadiazol-2-yl}-2-butyl-6-hydroxy-3-[(1S)-1-phenylbutyl]-3,4-dihydropyrimidin-4-one], the EC50 fell in the range of 10 to 100 nM.
In the case of `CCCCc1nc(O)c(-c2nnc(Cc3ccc(Cl)cn3)o2)c(=O)n1[C@@H](C)c1cccc(C#N)c1` [Example 108, 3-[(1S)-1-(2-butyl-5-{5-[(5-chloropyridin-2-yl)methyl]-1,3,4-oxadiazol-2-yl}-4-hydroxy-6-oxo-1,6-dihydropyrimidin-1-yl)ethyl]benzonitrile], the EC50 was 0.01 to 10 nM.
Regarding `CCCCc1nc(O)c(-c2nnc(Cc3ccc(Cl)cn3)o2)c(=O)n1C(C)c1ccncc1` (stereo not drawn) [Example 109, 2-butyl-5-{5-[(5-chloropyridin-2-yl)methyl]-1,3,4-oxadiazol-2-yl}-6-hydroxy-3-[1-(pyridin-4-yl)ethyl]-3,4-dihydropyrimidin-4-one], the EC50 fell in the range of 0.01 to 10 nM.
With `CCCCc1nc(O)c(-c2nnc(Cc3noc4ccccc34)o2)c(=O)n1C(C)c1ccncc1` (stereo not drawn) [Example 110, 5-{5-[(1,2-benzoxazol-3-yl)methyl]-1,3,4-oxadiazol-2-yl}-2-butyl-6-hydroxy-3-[1-(pyridin-4-yl)ethyl]-3,4-dihydropyrimidin-4-one], the EC50 was in the range of 10 to 100 nM.
To `CCCCc1nc(O)c(-c2nnc(Cc3ccc(Cl)cn3)o2)c(=O)n1C(C)c1ccncc1` (stereo not drawn) [Example 111, 2-butyl-5-{5-[(5-chloropyridin-2-yl)methyl]-1,3,4-oxadiazol-2-yl}-6-hydroxy-3-[1-(pyridin-4-yl)ethyl]-3,4-dihydropyrimidin-4-one] belongs 0.01 to 10 nM.
For `CCCCc1nc(O)c(-c2nnc(Cc3csc(C)n3)o2)c(=O)n1C(c1ccccc1)C(C)C` (stereo not drawn) [Example 112, 2-butyl-6-hydroxy-5-{5-[(2-methyl-1,3-thiazol-4-yl)methyl]-1,3,4-oxadiazol-2-yl}-3-(2-methyl-1-phenylpropyl)-3,4-dihydropyrimidin-4-one] the value was 10 to 100 nM; for `CCCCc1nc(O)c(-c2nnc(Cc3ccc(Cl)cn3)o2)c(=O)n1C(c1ccccc1)C(C)C` (stereo not drawn) [Example 113, 2-butyl-5-{5-[(5-chloropyridin-2-yl)methyl]-1,3,4-oxadiazol-2-yl}-6-hydroxy-3-(2-methyl-1-phenylpropyl)-3,4-dihydropyrimidin-4-one], 0.01 to 10 nM.
For `CCCCc1nc(O)c(-c2nnc(Cc3noc4ccccc34)o2)c(=O)n1[C@@H](C)c1cccc(OC)c1` [Example 114, 5-{5-[(1,2-benzoxazol-3-yl)methyl]-1,3,4-oxadiazol-2-yl}-2-butyl-6-hydroxy-3-[(1S)-1-(3-methoxyphenyl)ethyl]-3,4-dihydropyrimidin-4-one] the value was 10 to 100 nM.
